What was measured:
Format in all cases: cell-based
BHK-21 cells = experiment: Anti-fibrosis activity test: inhibition of BHK-21 cell proliferation (CCK-8); settings: Mesocricetus auratus, BHK-21, 48 h, CCK-8, 48 hours after administration
Method in brief: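 Each concentration was tested in triplicate on adhered BHK-21 cells for 48 h, with pirfenidone as reference. A 2 h CCK-8 incubation preceded absorbance reading at 450 nm, and IC50 was obtained from percent inhibition versus blank.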

[1] = test system: human lung fibroblasts HFL1; experiment: Anti-fibrosis activity test: inhibition of proliferation of human lung fibroblasts HFL1 (CCK-8); settings: Homo sapiens, HFL1, 48 h, human lung fibroblasts HFL1, CCK-8, 48 hours
Method in brief: (§1)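 Cells were seeded at 2×10^4 cells/mL and allowed to adhere for 24 h at 37° C, 5% CO2, then exposed to graded compound concentrations in triplicate for 48 h. CCK-8 was added for 2 h, A450 was read, and IC50 was derived from inhibition rate = (1−Ai/Ao)×100%.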

[2] = test system: human hepatic stellate cells LX-2; experiment: Anti-fibrosis activity test: inhibition of proliferation of human hepatic stellate cells LX-2 (CCK-8); settings: Homo sapiens, 48 h, human hepatic stellate cells LX-2, CCK-8, 48 hours
Method in brief: as §1

[3] = test system: human fibrosarcoma cells HT-1080; experiment: Anti-fibrosis activity test: inhibition of proliferation of human fibrosarcoma cells HT-1080 (CCK-8); settings: Homo sapiens, HT-1080, 48 h, human fibrosarcoma cells HT-1080, CCK-8, 48 hours
Method in brief: as §1

[4] = test system: human dermal fibroblasts CCC-ESF-1; experiment: Anti-fibrosis activity test: inhibition of proliferation of human dermal fibroblasts CCC-ESF-1 (CCK-8); settings: Fibroblast; human dermal fibroblasts CCC-ESF-1, CCK-8, 48 hours
Method in brief: as §1

[5] = test system: human embryonic lung fibroblast IMR-90; experiment: Anti-fibrosis activity test: inhibition of proliferation of human embryonic lung fibroblast IMR-90 (CCK-8); settings: human embryonic lung fibroblast IMR-90, CCK-8, 48 hours
Method in brief: as §1

[6] = test system: cardiac fibroblast RAT-iCell-C002; experiment: Anti-fibrosis activity test: inhibition of proliferation of cardiac fibroblast RAT-iCell-C002 (CCK-8); settings: Cardiac fibroblast, 48 h, cardiac fibroblast RAT-iCell-C002, CCK-8, 48 hours
Method in brief: as §1

NF-κB = experiment: Immunological activity test: inhibition of NF-κB activity; settings: initial concentration of 30 μM; a/b isomers given as first/second symbol; read-out: IC50 (μM), inhibitory activity against NF-κB
Method in brief: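 Single-point testing at 30 μM preceded IC50 determination.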

[7] = test system: mouse macrophages (RAW264.7); experiment: Lipopolysaccharide-induced NO secretion in macrophages (Griess); settings: Mus musculus, RAW264.7, 24 h, RAW264.7, LPS 1 μg/ml, a/b isomers given as first/second symbol, read-out: IC50 (μM), inhibition of lipopolysaccharide-induced NO secretion in macrophages
Method in brief: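 RAW264.7 cells in DMEM with 10% FBS were treated with test compounds at several concentrations, then stimulated with LPS (1 μg/ml) for 24 hours. Nitrite in the supernatant was measured by Griess reaction at 548 nm, and percent inhibition was calculated against blank-medium controls.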

Row | SMILES | IC50 [3] | IC50 (NF-κB) | IC50 [7] | IC50 (BHK-21 cells) | IC50 [1] | IC50 [2] | IC50 [4] | IC50 [5] | IC50 [6]
1 | N#Cc1ccc(Cn2c3c(c(=O)c4ccccc42)C(=O)n2cccc2-3)cc1 [Compound 590a, 4-((9,10-Dioxo-9H-pyrrolizino[1,2-b]quinolin-4(10H)-yl)methyl)benzonitrile] | 0.05 to 5 mM | 1 to 10 µM | 1 to 10 µM | 0.05 to 5 mM | 0.05 to 5 mM | 0.05 to 5 mM | 0.05 to 5 mM | 0.05 to 5 mM | 0.05 to 5 mM
2 | N#Cc1ccc(COc2c3c(nc4ccccc24)-c2cccn2C3=O)cc1 [Compound 590b, 4-(((10-oxo-10H-pyrrolizino[1,2-b]quinolin-9-yl)oxy)methyl)benzonitrile] | 0.05 to 5 mM | 1 to 10 µM | 1 to 10 µM | 0.05 to 5 mM | 0.05 to 5 mM | 0.05 to 5 mM | 0.05 to 5 mM | 0.05 to 5 mM | 0.05 to 5 mM
3 | O=C1c2c(n(Cc3ccc(C(F)(F)F)cc3)c3ccccc3c2=O)-c2cccn21 [Compound 591a, 4-(4-(Trifluoromethyl)benzyl)-9H-pyrrolizino[1,2-b]quinoline-9,10(4H)-dione] | 0.05 to 5 mM | 1 to 10 µM | 0.1 to 1 µM | 0.05 to 5 mM | 0.05 to 5 mM | 0.05 to 5 mM | 0.05 to 5 mM | 0.05 to 5 mM | 0.05 to 5 mM
4 | O=C1c2c(nc3ccccc3c2OCc2ccc(C(F)(F)F)cc2)-c2cccn21 [Compound 591b, 9-((4-(trifluoromethyl)benzyl)oxy)-10H-pyrrolizino[1,2-b]quinolin-10-one] | 0.05 to 5 mM | 0.1 to 1 µM | 1 to 10 µM | 0.05 to 5 mM | 0.05 to 5 mM | 0.05 to 5 mM | 0.05 to 5 mM | 0.05 to 5 mM | 0.05 to 5 mM
5 | O=C1c2c(n(Cc3ccc(OC(F)(F)F)cc3)c3ccccc3c2=O)-c2cccn21 [Compound 592a, 4-(4-(Trifluoromethoxy)benzyl)-9H-pyrrolizino[1,2-b]quinoline-9,10(4H)-dione] | 0.05 to 5 mM | 1 to 10 µM | 1 to 10 µM | 0.05 to 5 mM | 0.05 to 5 mM | 0.05 to 5 mM | 0.05 to 5 mM | 0.05 to 5 mM | 0.05 to 5 mM
6 | O=C1c2c(nc3ccccc3c2OCc2ccc(OC(F)(F)F)cc2)-c2cccn21 [Compound 592b, 9-((4-(trifluoromethoxy)benzyl)oxy)-10H-pyrrolizino[1,2-b]quinolin-10-one] | 0.05 to 5 mM | 1 to 10 µM | 1 to 10 µM | 0.05 to 5 mM | 0.05 to 5 mM | 0.05 to 5 mM | 0.05 to 5 mM | 0.05 to 5 mM | 0.05 to 5 mM
7 | O=C1c2c(n(Cc3ccc([N+](=O)[O-])cc3)c3ccccc3c2=O)-c2cccn21 [Compound 593a, 4-(4-Nitrobenzyl)-9H-pyrrolizino[1,2-b]quinoline-9,10(4H)-dione] | 0.05 to 5 mM | 0.1 to 1 µM | 1 to 10 µM | 0.05 to 5 mM | 0.05 to 5 mM | 0.05 to 5 mM | 0.05 to 5 mM | 0.05 to 5 mM | 0.05 to 5 mM
8 | O=C1c2c(nc3ccccc3c2OCc2ccc([N+](=O)[O-])cc2)-c2cccn21 [Compound 593b, 9-((4-nitrobenzyl)oxy)-10H-pyrrolizino[1,2-b]quinolin-10-one] | 0.05 to 5 mM | 1 to 10 µM | 1 to 10 µM | 0.05 to 5 mM | 0.05 to 5 mM | 0.05 to 5 mM | 0.05 to 5 mM | 0.05 to 5 mM | 0.05 to 5 mM
9 | O=C1c2c(n(Cc3ccc(Br)cc3)c3ccccc3c2=O)-c2cccn21 [Compound 594a, 4-(4-Bromobenzyl)-9H-pyrrolizino[1,2-b]quinoline-9,10(4H)-dione] | 0.05 to 5 mM | 0.1 to 1 µM | 1 to 10 µM | < 0.05 mM | 0.05 to 5 mM | 0.05 to 5 mM | 0.05 to 5 mM | 0.05 to 5 mM | 0.05 to 5 mM
10 | O=C1c2c(nc3ccccc3c2OCc2ccc(Br)cc2)-c2cccn21 [Compound 594b, 9-((4-bromobenzyl)oxy)-10H-pyrrolizino[1,2-b]quinolin-10-one] | 0.05 to 5 mM | 1 to 10 µM | 1 to 10 µM | 0.05 to 5 mM | 0.05 to 5 mM | 0.05 to 5 mM | 0.05 to 5 mM | 0.05 to 5 mM | 0.05 to 5 mM
11 | O=C1c2c(n(Cc3cccc(F)c3)c3ccccc3c2=O)-c2cccn21 [Compound 595a, 4-(3-Fluorobenzyl)-9H-pyrrolizino[1,2-b]quinoline-9,10(4H)-dione] | 0.05 to 5 mM | 1 to 10 µM | 0.1 to 1 µM | 0.05 to 5 mM | 0.05 to 5 mM | 0.05 to 5 mM | < 0.05 mM | 0.05 to 5 mM | 0.05 to 5 mM

More lines, main results first:

Row | IC50 [3] | IC50 (NF-κB) | IC50 [7] | SMILES | IC50 (BHK-21 cells) | IC50 [1] | IC50 [2] | IC50 [4] | IC50 [5] | IC50 [6]
12 | 0.05 to 5 mM | 1 to 10 µM | 1 to 10 µM | O=C1c2c(n(Cc3cc(F)c(F)c(F)c3F)c3ccccc3c2=O)-c2cccn21 [Compound 587a, 4-(2,3,4,5-Tetrafluorobenzyl)-9H-pyrrolizino[1,2-b]quinoline-9,10(4H)-dione] | 0.05 to 5 mM | 0.05 to 5 mM | 0.05 to 5 mM | 0.05 to 5 mM | 0.05 to 5 mM | 0.05 to 5 mM
13 | 0.05 to 5 mM | 1 to 10 µM | 1 to 10 µM | O=C1c2c(nc3ccccc3c2OCc2cc(F)c(F)c(F)c2F)-c2cccn21 [Compound 587b, 9-((2,3,4,5-tetrafluorobenzyl)oxy)-10H-pyrrolizino[1,2-b]quinolin-10-one] | 0.05 to 5 mM | 0.05 to 5 mM | 0.05 to 5 mM | 0.05 to 5 mM | 0.05 to 5 mM | 0.05 to 5 mM
14 | 0.05 to 5 mM | 1 to 10 µM | 1 to 10 µM | O=C1c2c(n(Cc3ccc(F)cc3)c3ccccc3c2=O)-c2cccn21 [Compound 588a, 4-(4-Fluorobenzyl)-9H-pyrrolizino[1,2-b]quinoline-9,10(4H)-dione] | 0.05 to 5 mM | 0.05 to 5 mM | 0.05 to 5 mM | 0.05 to 5 mM | 0.05 to 5 mM | 0.05 to 5 mM
15 | 0.05 to 5 mM | 1 to 10 µM | 1 to 10 µM | O=C1c2c(nc3ccccc3c2OCc2ccc(F)cc2)-c2cccn21 [Compound 588b, 9-((4-fluorobenzyl)oxy)-10H-pyrrolizino[1,2-b]quinolin-10-one] | 0.05 to 5 mM | 0.05 to 5 mM | 0.05 to 5 mM | 0.05 to 5 mM | 0.05 to 5 mM | 0.05 to 5 mM
16 | 0.05 to 5 mM | 1 to 10 µM | 1 to 10 µM | O=C1c2c(n(Cc3ccc(Cl)cc3)c3ccccc3c2=O)-c2cccn21 [Compound 589a, 4-(4-Chlorobenzyl)-9H-pyrrolizino[1,2-b]quinoline-9,10(4H)-dione] | < 0.05 mM | 0.05 to 5 mM | < 0.05 mM | 0.05 to 5 mM | 0.05 to 5 mM | 0.05 to 5 mM
17 | < 0.05 mM | 1 to 10 µM | 1 to 10 µM | O=C1c2c(nc3ccccc3c2OCc2ccc(Cl)cc2)-c2cccn21 [Compound 589b, 9-((4-chlorobenzyl)oxy)-10H-pyrrolizino[1,2-b]quinolin-10-one] | 0.05 to 5 mM | 0.05 to 5 mM | < 0.05 mM | 0.05 to 5 mM | 0.05 to 5 mM | 0.05 to 5 mM
